The text below walks through data of the supplement of paper PMC12076712.

Targets include PAK1 (UniProt Q13153); SLK (UniProt Q9H2G2); CLK1 (UniProt P49759); PLK1 (UniProt P53350).
What all share (test): pIC50, kinobeads binding competition
Conditions in all cases: cell material: Jurkat lysate

The target of another test is T1, MAP4K3 (UniProt Q8IVH8).
T1 sequence (whole entry): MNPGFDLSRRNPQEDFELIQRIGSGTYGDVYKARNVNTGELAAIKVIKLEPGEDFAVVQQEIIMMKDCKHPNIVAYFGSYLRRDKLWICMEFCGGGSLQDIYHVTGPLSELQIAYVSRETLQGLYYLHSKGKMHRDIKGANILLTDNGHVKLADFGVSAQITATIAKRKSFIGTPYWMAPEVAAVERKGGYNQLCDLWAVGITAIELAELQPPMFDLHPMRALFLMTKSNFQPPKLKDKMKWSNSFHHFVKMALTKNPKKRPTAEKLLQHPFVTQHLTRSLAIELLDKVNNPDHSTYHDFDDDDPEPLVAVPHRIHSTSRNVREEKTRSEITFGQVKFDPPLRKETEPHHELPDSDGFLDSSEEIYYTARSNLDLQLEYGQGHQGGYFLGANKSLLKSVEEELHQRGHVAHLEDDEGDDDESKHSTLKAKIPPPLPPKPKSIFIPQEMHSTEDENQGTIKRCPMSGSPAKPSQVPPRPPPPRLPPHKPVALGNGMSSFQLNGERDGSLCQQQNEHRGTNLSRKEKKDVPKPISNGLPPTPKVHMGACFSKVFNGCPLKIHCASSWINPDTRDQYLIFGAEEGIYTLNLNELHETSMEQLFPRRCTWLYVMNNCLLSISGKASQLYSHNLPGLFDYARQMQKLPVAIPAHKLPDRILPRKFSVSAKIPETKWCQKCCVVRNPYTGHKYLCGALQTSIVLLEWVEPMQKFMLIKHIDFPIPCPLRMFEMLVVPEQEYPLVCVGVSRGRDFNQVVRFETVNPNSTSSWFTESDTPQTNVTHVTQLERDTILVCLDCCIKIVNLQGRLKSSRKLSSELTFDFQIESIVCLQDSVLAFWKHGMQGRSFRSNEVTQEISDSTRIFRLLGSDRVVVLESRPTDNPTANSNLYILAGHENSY

For the next test, the target named is T2, UniProt O94768.
T2 sequence (whole entry): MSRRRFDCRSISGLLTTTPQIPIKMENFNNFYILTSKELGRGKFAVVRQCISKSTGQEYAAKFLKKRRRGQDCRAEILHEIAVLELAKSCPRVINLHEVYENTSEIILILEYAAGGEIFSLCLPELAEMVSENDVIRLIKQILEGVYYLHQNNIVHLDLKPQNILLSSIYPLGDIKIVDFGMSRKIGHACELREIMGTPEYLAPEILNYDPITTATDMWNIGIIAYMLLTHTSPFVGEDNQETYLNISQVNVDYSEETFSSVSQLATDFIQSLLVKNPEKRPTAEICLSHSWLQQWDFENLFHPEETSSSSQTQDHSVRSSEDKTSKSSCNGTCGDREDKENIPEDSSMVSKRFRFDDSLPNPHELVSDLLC

Another test has as its target T3, UniProt O15111.
T3 sequence (whole entry): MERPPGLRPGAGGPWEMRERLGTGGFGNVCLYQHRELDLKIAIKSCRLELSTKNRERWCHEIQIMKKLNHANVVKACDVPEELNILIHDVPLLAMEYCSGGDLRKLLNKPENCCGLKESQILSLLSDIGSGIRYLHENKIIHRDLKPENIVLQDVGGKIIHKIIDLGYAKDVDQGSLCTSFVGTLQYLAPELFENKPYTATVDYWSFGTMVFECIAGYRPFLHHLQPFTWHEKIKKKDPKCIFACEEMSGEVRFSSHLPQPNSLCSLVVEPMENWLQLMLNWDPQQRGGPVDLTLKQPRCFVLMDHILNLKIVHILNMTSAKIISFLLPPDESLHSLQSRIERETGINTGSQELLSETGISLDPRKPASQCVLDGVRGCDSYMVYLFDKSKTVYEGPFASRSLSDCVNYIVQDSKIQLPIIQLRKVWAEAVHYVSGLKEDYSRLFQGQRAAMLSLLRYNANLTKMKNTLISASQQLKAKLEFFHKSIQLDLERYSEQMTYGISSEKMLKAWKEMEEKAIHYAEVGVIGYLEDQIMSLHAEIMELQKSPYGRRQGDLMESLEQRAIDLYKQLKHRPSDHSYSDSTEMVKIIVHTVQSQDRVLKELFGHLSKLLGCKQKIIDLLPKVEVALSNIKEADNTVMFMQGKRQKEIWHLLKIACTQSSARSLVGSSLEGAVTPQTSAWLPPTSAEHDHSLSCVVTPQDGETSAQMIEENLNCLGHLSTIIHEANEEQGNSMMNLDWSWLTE

The next test addresses T4, UniProt P45985.
T4 sequence (whole entry): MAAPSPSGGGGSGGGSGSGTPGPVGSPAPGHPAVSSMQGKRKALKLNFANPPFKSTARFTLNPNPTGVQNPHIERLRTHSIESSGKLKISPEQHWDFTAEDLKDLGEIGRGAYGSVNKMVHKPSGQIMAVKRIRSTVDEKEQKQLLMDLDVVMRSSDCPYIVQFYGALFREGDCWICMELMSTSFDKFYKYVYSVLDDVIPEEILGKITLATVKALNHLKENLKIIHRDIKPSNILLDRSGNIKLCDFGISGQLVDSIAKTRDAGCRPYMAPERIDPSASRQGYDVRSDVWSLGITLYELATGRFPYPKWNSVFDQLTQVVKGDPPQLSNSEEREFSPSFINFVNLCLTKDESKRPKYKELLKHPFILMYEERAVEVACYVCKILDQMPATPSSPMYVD

Sequence of SLK (Q9H2G2 whole entry, looked up): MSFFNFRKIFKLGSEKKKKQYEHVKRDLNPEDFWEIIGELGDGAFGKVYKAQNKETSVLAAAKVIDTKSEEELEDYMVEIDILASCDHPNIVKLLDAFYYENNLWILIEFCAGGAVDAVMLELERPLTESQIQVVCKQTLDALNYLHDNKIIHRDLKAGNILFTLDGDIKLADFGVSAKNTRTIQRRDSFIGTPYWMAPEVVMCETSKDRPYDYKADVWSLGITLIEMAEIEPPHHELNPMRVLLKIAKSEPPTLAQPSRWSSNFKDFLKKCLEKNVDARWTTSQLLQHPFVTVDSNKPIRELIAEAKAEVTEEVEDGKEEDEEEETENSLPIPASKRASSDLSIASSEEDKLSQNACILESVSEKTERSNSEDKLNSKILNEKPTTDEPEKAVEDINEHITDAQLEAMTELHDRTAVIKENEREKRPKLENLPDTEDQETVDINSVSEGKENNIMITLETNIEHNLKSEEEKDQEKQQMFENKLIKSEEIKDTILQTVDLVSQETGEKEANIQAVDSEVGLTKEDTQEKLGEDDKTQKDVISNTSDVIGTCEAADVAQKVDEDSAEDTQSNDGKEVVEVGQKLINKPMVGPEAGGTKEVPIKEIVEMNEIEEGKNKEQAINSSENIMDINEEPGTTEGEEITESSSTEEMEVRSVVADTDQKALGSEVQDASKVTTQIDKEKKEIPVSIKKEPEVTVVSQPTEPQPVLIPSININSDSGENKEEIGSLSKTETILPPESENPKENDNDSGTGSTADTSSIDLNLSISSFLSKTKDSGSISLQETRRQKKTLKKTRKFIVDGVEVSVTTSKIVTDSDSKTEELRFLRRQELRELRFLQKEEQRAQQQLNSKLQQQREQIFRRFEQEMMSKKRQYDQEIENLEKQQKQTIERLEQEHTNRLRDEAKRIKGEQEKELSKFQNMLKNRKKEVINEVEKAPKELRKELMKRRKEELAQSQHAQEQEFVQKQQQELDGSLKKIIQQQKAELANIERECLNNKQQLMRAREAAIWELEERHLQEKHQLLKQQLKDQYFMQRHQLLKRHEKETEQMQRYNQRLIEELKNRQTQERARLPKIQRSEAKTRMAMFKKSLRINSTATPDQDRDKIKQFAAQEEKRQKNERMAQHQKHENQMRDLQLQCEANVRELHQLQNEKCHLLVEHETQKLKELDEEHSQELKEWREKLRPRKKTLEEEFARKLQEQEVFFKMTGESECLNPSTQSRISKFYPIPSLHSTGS
Sequence of CLK1 (P49759 whole entry, looked up): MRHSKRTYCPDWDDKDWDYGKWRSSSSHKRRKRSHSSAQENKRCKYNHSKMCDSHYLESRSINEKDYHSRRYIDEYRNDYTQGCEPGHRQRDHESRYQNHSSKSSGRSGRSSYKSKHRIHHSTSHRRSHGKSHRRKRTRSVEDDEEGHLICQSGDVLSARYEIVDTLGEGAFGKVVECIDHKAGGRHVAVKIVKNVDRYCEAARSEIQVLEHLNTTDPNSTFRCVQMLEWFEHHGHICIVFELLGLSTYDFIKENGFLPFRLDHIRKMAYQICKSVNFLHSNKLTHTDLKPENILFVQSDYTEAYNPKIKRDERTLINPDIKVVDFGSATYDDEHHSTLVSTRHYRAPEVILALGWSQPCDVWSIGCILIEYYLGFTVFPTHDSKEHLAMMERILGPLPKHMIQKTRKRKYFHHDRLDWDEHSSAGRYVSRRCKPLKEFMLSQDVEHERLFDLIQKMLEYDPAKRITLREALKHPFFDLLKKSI
Sequence of PAK1 (Q13153 whole entry): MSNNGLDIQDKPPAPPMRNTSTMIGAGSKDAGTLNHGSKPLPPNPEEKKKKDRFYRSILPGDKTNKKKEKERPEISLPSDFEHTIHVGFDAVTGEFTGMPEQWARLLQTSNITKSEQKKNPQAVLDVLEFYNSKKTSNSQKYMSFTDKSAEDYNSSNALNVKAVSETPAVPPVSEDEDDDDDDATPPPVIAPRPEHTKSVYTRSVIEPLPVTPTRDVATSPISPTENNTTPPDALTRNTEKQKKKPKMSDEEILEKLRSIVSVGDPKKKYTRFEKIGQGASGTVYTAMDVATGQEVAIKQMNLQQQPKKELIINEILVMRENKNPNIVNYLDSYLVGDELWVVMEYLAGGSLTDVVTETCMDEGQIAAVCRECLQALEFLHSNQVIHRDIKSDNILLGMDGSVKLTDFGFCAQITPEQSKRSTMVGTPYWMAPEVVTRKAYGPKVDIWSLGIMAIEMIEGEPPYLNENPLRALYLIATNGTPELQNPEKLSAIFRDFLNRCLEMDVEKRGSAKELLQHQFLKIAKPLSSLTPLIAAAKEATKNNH
Sequence of PLK1 (P53350 whole entry): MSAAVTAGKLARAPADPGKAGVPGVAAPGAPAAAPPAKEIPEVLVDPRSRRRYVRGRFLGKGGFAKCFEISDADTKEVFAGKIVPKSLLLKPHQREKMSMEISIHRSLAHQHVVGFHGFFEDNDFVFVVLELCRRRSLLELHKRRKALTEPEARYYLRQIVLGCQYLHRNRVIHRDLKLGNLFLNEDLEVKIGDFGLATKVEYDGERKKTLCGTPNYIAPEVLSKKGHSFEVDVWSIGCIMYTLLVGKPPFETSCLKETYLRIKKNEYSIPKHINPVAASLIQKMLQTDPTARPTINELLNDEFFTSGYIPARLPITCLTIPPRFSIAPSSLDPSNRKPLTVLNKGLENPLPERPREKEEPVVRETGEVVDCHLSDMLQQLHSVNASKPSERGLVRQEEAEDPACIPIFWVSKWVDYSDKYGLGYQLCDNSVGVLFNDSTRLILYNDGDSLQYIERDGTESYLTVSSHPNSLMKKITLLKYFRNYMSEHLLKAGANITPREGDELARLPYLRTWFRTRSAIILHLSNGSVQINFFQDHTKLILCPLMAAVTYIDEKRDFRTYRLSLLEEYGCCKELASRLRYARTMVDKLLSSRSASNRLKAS

As a reminder, the pIC50 is −log10 of the IC50, conventionally taken in molar units. For the compound `CCc1cnn2c(NCc3ccc[n+]([O-])c3)cc(N3CCCC[C@H]3CCO)nc12` [dinaciclib], the pIC50 at PAK1 is under 4.52; on MAP4K3, under 4.52; at SLK, under 4.52; on UniProt O94768, under 4.52; on CLK1 it was 5.13; on UniProt O15111, under 4.52. Moreover, the negative logarithm of the IC50 (pIC50) at PLK1 and on UniProt P45985 was under 4.52 in each case.
